Reference: paper PMC11785157 (bioRxiv, 2025)
Where two headings read alike, the source gives them in different places.

Assays:
CHIKV [1] = assay: CPE reduction assay, CHIKV in Vero cells; assay type: cell-based, chikungunya virus; settings: read-out: EC50 CHIKV
SFV [2] = assay: microbe, parasite or virus in culture; assay type: cell-based; settings: Semliki Forest virus, Vero, 72 h, read-out: EC50 SFV
SINV HRsp [3] = assay: microbe, parasite or virus in culture; assay type: cell-based; settings: Sindbis virus, Vero, 72 h, read-out: EC50 SINV HRsp
SINV AR86 [4] = assay: microbe, parasite or virus in culture; assay type: cell-based; settings: Sindbis virus, Vero, 72 h, read-out: EC50 SINV AR86
RRV [5] = assay: microbe, parasite or virus in culture; assay type: cell-based; settings: Ross River virus, Vero, 72 h, read-out: EC50 RRV
VEEV TC83 [6] = assay: microbe, parasite or virus in culture; assay type: cell-based; settings: Venezuelan equine encephalitis virus, Vero, 72 h, read-out: EC50 VEEV TC83
CHIKV [7] = assay: CPE reduction assay, CHIKV in skin fibroblasts; assay type: cell-based, chikungunya virus; settings: read-out: EC50 CHIKV
SFV [8] = assay: microbe, parasite or virus in culture; assay type: cell-based; settings: Semliki Forest virus, Skin fibroblast, 72 h, read-out: EC50 SFV
RRV [9] = assay: microbe, parasite or virus in culture; assay type: cell-based; settings: Ross River virus, Skin fibroblast, 72 h, read-out: EC50 RRV
SINV HRsp [10] = assay: microbe, parasite or virus in culture; assay type: cell-based, Sindbis virus; settings: for EC50: Sindbis virus, Huh-7, 72 h, read-out: EC50 SINV HRsp
SINV AR86 [11] = assay: microbe, parasite or virus in culture; assay type: cell-based, Sindbis virus; settings: for EC50: Sindbis virus, Huh-7, 72 h, read-out: EC50 SINV AR86
VEEV TC83 [12] = assay: microbe, parasite or virus in culture; assay type: cell-based, Venezuelan Equine Encephalitis virus; settings: for EC50: Venezuelan equine encephalitis virus, Huh-7, 72 h, read-out: EC50 VEEV TC83
[13] = test system: alphaviruses (CHIKV, SFV, SINV-HRsp, SINV-AR86, VEEV TC83 and RRV); assay: microbe, parasite or virus in culture; assay type: cell-based
alphaviruses [14] = assay: organism not typed; assay type: cell-based
in vitro [15] = settings: African green monkey
in vitro [16] = settings: human
in vitro [17] = settings: human; remark: listed apart in the source
alphaviruses [18] = assay type: cell-based
CHIKV [19] = assay: CHIKV-induced foot swelling in AG129 mice; assay type: in vivo
CHIKV [20] = assay: Infectious virus titres in CHIKV-infected AG129 mice; assay type: in vivo
CHIKV [21] = assay: Viral RNA levels in CHIKV-infected AG129 mice; assay type: in vivo; settings: day 3 pi
[22] = mouse, in vivo
CHIKV [23] = settings: SOF 40-80 mg/kg/day; cited from earlier work
CHIKV [24] = settings: SOF 20 mg/kg/day; cited from earlier work
[25] = Chikungunya virus, Skin fibroblast, 72 h
[26] = combination study, day 2 pi, MPV 10 mg/kg, SOF 80 mg/kg or both (80 + 10 mg/kg), oral
[27] = MPV 10, 50, 100 mg/kg, day 3 pi

SMILES | EC50 (CHIKV [1]; Chikungunya virus, Vero, 72 h) | EC50 (SFV [2]) | EC50 (SINV HRsp [3]) | EC50 (RRV [5]) | EC50 (VEEV TC83 [6]) | EC50 (CHIKV [7]; [25]) | EC50 (SFV [8]) | EC50 (RRV [9]) | EC50 (SINV HRsp [10]) | antiviral activity against SINV AR86 (in words) (SINV AR86 [11]) | EC50 (SINV AR86 [11]) | antiviral activity against VEEV TC83 (in words) (VEEV TC83 [12]) | EC50 (VEEV TC83 [12]) | CC50 (in vitro [15]) | CC50 (in vitro [16]) | CC50 (in vitro [17]) | reduction of foot swelling compared to vehicle (CHIKV [19]; [26]) | further results
NC(=O)c1nc(F)c[nH]c1=O [FAV, favipiravir] | 35 ± 14 µM | 33 ± 6 µM | 52 ± 18 µM | 15 ± 12 µM | 13 µM | 143 ± 5 µM | 382 µM | > 200 µM | 22 ± 7 µM | active | 29 ± 18 µM | active | 112 µM | 374 ± 17 µM | > 500 µM | > 500 µM | – | EC50 (SINV AR86 [4]): 17 ± 2 µM; antiviral activity against SINV HRsp (in words) (SINV HRsp [10]): active; EC50 ([13]; Chikungunya virus, Vero, read-out: EC50 values against all alphaviruses tested): 13 to 52 µM; antiviral efficacy (in words) (alphaviruses [14]): only effective against CHIKV
CC(C)C(=O)OC[C@H]1O[C@@H](n2ccc(NO)nc2=O)[C@H](O)[C@@H]1O [MPV, Molnupiravir] | – | – | – | – | – | – | – | – | – | – | – | – | – | – | – | – | 19% | EC50 values against all alphaviruses tested (in words) (alphaviruses [14]): sub to low single-digit micromolar range; EC50 values, pan-alphavirus (in words) (alphaviruses [18]): sub to low single-digit micromolar range; effect on foot swelling (in words) (CHIKV [19]; MPV 10 mg/kg oral twice daily, dose-response study): did not significantly improve swelling; reduction of foot swelling compared to vehicle (CHIKV [19]; MPV 50 mg/kg oral twice daily, day 2 pi): 22%; reduction of foot swelling compared to vehicle (CHIKV [19]; MPV 50 mg/kg oral twice daily, day 3 pi): 55%; reduction of foot swelling compared to vehicle (CHIKV [19]; MPV 100 mg/kg oral twice daily, day 2 pi): 20%; reduction of foot swelling compared to vehicle (CHIKV [19]; MPV 100 mg/kg oral twice daily, day 3 pi): 62%; infectious virus in contralateral ankle (in words) (CHIKV [20]; [27]): dose-dependent decreases; infectious virus in serum (in words) (CHIKV [20]; [27]): dose-dependent decreases; infectious CHIKV in serum (in words) (CHIKV [20]; MPV all doses (10, 50, 100 mg/kg), day 2 pi): suppressed infectious CHIKV; reduction of infectious virus titres in serum (CHIKV [20]; combination study, day 3 pi, MPV 10 mg/kg, SOF 80 mg/kg or both): 1 log10 TCID50/mL; infectious virus in left ankle (in words) (CHIKV [20]; highest dose of MPV, day 3 pi): significant decreases; viral RNA in contralateral ankle (in words) (CHIKV [21]; MPV 10, 50, 100 mg/kg): dose-dependent decreases; viral RNA in serum (in words) (CHIKV [21]; MPV 10, 50, 100 mg/kg): significantly reduced; viral RNA in left ankle (in words) (CHIKV [21]; highest dose of MPV): significant decreases; tolerability [22]: well-tolerated
CC(C)OC(=O)[C@H](C)N[P@](=O)(OC[C@H]1O[C@@H](n2ccc(=O)[nH]c2=O)[C@](C)(F)[C@@H]1O)Oc1ccccc1 [SOF, Sofosbuvir] | > 100 µM | > 100 µM | > 100 µM | > 100 µM | > 100 µM | 15 ± 3 µM | 17 ± 3 µM | 20 ± 7 µM | 44 ± 3 µM | did not inhibit | > 50 µM | did not inhibit | > 50 µM | 350 ± 14 µM | 280 ± 13 µM | 271 ± 95 µM | 25% | antiviral activity [13]: no antiviral activity; EC50 (alphaviruses [14]; Skin fibroblast, read-out: EC50 values against all alphaviruses tested): 12 to 20 µM; effect on foot swelling (in words) (CHIKV [19]; SOF 40 and 80 mg/kg oral twice daily, over the course of the infection): did not significantly improve; reduction of foot swelling compared to vehicle (CHIKV [19]; combination study, day 3 pi, MPV 10 mg/kg, SOF 80 mg/kg or both (80 + 10 mg/kg), oral): no reduction; survival (CHIKV [23]): improved survival; foot swelling (CHIKV [24]): slightly reduced; reduction of viral RNA in the joint (CHIKV [24]): < 1 log gc/ml
O=c1nc(NO)ccn1[C@@H]1O[C@H](CO)[C@@H](O)[C@H]1O [EIDD-1931] | – | – | – | – | – | – | – | – | – | – | – | – | – | – | – | – | – | EC50 (CHIKV [1]; Vero cells, 72 h pi, MTS): 0.7 µM; EC50 (CHIKV [7]; Skin fibroblasts, 72 h pi, MTS): 0.9 µM; CC50 (Vero cells): > 200 µM; CC50 (Human skin fibroblasts): 140 ± 19 µM; CC50 (Huh7 cells): 22 ± 11 µM
